Patent US20090306159A1, “Inhibition of Intermediate-Conductance Calcium Activated Potassium Channels in the Treatment and/or Prevention of Atherosclerosis” (The Regents of the University, priority 2005, published 2009)

Columns and labels:
[1] = system: human coronary artery smooth muscle cells (HCSMCs); assay: Cell proliferation assay (cell count with hemocytometer) in PDGF-stimulated HCSMCs; type: cell-based; details: for cell number of HCSMCs: 48 hours, n=7
Procedure: (§1) Cell proliferation assays: Cell proliferation assays were performed as previously reported. Briefly, quiescent HCSMCs seeded at a density of 4×10^4/well in 6-well plates were stimulated by 20 ng/mL PDGF in the presence or absence of 10^−7 M TRAM-34, a selective IKCa blocker. Forty eight hours after stimulation, the number of cells was counted with a hemocytometer (MARIENFELD, Lauda-Konigshofen Germany). In another set of experiments, a BrdU cell proliferation assay was also performed with quiescent cells in 96-well plates at a density of 1×10^4/well according to the manufacturer's instructions (Colorimetric Cell Proliferation ELISA, Roche, Penzberg Germany). In this study, BrdU (10^−5 M in medium) was applied 24 hours prior to the measurements.

[2] = system: human coronary artery smooth muscle cells (HCSMCs); assay: BrdU cell proliferation assay (DNA synthesis) in HCSMCs; type: cell-based
Procedure: as §1

c-fos = assay: Western blot of c-fos expression in HCSMCs; type: cell-based, human; details: PDGF + TRAM-34
Excerpt: Western blot analysis: Total cell lysates or membrane fractions were harvested and protein samples separated on an electrophoresis gel by SDS-PAGE and then transferred to a PVDF membrane. The gels were stained in Coomassie blue to confirm equal protein loading. Membranes were blocked with 10% nonfat dried milk, blotted with primary antibodies (BKCa α-subunit [Affinity BioReagents], c-fos [Santa Cruz, Inc.] and IKCa) and subsequently probed with a horseradish peroxidase-labeled donkey anti-rabbit antibody (1:5,000˜10,000 [Santa Cruz, Inc.]). The bound antibody was detected by chemiluminescence (ECL Plus, Amersham). The polyclonal primary antibody against human and mouse IKCa was obtained from sera of rabbits immunized using oligopeptides with following amino acids sequences; H-LNASYRSIGALNQVRC-NH2 (S4-5 of human and mouse IKCa).

[3] = system: human coronary artery smooth muscle cells (HCSMCs); assay: Transwell cell migration assay in HCSMCs; type: cell-based
Procedure: Cell migration assay: A Cell migration assay was carried out with the Transwell system (Corning, Acton, Mass.) as previously reported. Briefly, cells (3×10^5 cells/mL) were seeded onto the upper chamber of Transwells, and the lower chamber was filled with serum-free medium containing 20 ng/ml PDGF. TRAM-34 (10^−8˜10^−7 M) was added to both chambers. After 8-hour stimulation, migrated cells were fixed and stained with the Diff-Quick Stain (IMEB Inc. Chicago, Ill.) and counted under a microscope.

ApoE knockout mice = assay: Development of atherosclerosis in ApoE knockout mice on high-cholesterol diet (long-term IKCa1 blockade); type: in vivo, mouse; details: ApoE KO mice, long-term TRAM-34
Procedure: Mouse treatment: C57BL/6J male mice (wild type [WT] n=11 and ApoE deficient type [EKO] n=38, The Jackson Laboratory) were used. EKO mice were weaned at 4 weeks of age onto a high-cholesterol diet (1.3% cholesterol; TD 96121, Harian/Teklad) and treated with daily subcutaneous injection of TRAM-34 (120 mg/kg/day) or vehicle (peanut oil) for 12 weeks. Littermate war mice were used as the control group in the experiments. Mice were provided diet and water ad libitum and maintained on a 12-hour light/dark cycle. All animal experiments were conducted according to the Guidelines for Animal Experiments at Medical College of Wisconsin.
Histological analysis of atherosclerosis in mouse aortas: Isolation of aortas and quantification of atherosclerosis were performed as previously described. Briefly, aortas (from aortic arch to iliac bifurcation) were opened longitudinally, pinned onto a silicon-coated dish, fixed with 4% paraformaldehyde, and stained in 1.0% (v/w) Sudan III solution (The Science Company, Denver, Colo.). Images were acquired using a digital camera (C-755, Minolta), and the surface area of atherosclerotic lesions was measured as the percentage of total area of the opened aorta using imaging software, MetaMorph (Universal Imaging Corp).

[4] = Body weight, heart weight, blood pressure, heart rate, plasma cholesterol and deaths in treated mice; type: in vivo, mouse
Procedure: Mouse treatment: C57BL/6J male mice (wild type [WT] n=11 and ApoE deficient type [EKO] n=38, The Jackson Laboratory) were used. […] Littermate war mice were used as the control group in the experiments. Mice were provided diet and water ad libitum and maintained on a 12-hour light/dark cycle. All animal experiments were conducted according to the Guidelines for Animal Experiments at Medical College of Wisconsin.
Hemodynamic analysis of mice: At 16 weeks of age, mice were anesthetized, and right femoral arteries were cannulated for continuous measurement of arterial pressure and heart rate (pressure transducer; Bioresearch Center, Nagoya, Japan) and recorded continuously by computer for 30 min.
Plasma lipid analysis: Plasma was obtained by centrifugation of blood and stored at −80° C. until each assay was performed. Plasma cholesterol levels were analyzed by General Medical Laboratories (Madison, Wis.).

BKCa [5] = target: BKCa (Homo sapiens, UniProt Q12791); assay: Videomicroscopy: vasodilation of human coronary arterioles to BKCa opener; details: endothelium-denuded human vessels, 3×10^-6 M, n=3
Chain of BKCa (Homo sapiens, UniProt Q12791) (Q12791 whole entry): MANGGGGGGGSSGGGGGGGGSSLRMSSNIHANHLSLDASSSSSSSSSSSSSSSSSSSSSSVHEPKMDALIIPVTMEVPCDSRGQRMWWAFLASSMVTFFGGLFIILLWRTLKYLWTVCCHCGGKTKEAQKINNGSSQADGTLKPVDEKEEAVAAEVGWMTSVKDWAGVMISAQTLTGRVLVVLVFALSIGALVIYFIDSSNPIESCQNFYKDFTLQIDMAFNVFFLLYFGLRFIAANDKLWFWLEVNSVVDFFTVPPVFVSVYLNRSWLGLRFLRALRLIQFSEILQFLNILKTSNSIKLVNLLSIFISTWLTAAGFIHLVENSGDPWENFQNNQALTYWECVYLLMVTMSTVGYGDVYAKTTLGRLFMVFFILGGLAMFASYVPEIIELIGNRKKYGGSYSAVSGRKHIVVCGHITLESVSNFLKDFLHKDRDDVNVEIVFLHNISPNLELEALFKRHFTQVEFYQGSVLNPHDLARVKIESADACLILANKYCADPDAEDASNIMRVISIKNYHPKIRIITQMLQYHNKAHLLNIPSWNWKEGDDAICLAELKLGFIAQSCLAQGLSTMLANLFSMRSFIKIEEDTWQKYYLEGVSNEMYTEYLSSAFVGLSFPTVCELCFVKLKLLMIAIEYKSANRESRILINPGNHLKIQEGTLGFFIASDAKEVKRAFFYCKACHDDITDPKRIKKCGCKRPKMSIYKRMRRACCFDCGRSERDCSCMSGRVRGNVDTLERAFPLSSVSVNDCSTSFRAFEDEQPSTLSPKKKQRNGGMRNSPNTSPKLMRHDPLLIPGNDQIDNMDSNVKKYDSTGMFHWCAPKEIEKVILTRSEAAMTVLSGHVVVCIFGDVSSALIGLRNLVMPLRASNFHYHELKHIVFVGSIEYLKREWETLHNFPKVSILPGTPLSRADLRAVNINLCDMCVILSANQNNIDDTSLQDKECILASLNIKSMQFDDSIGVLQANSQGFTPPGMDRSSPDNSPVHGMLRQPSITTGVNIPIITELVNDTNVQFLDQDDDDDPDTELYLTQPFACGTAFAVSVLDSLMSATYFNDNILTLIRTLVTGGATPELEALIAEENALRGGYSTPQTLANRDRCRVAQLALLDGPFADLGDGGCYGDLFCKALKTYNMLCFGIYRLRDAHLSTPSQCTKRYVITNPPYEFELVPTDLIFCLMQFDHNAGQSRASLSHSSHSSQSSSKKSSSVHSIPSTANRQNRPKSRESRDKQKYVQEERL
Chain of BKCa (Homo sapiens, UniProt Q12791) (Q16558 whole entry partner): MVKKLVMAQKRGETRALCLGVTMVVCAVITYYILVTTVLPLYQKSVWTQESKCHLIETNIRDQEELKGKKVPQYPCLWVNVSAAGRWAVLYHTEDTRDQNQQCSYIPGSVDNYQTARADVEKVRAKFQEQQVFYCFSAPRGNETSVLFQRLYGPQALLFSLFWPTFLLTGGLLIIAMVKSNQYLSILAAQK
Procedure: (§2) Videomicroscopy: The preparation for videomicroscopy has been previously described. Vasomotor and endothelial function was confirmed by measuring constriction to 50 mM KCl and dilation to acetylcholine (ACh, 10^−4 M, mouse vessels pressurized at 40 mmHg) or to bradykinin (10^−7 mol/L, human vessels at 60 mmHg). Vessels were preconstricted with U46619 (10^−9˜10^−8 M for mouse vessels) or ACh (10^−8˜5×10^−7 M for human vessels) to adjust tone to a level between 30% to 50% of passive diameter. […] In some experiments, endothelial cells (ECs) were denuded.
(§3) Statistical Analysis: All data are expressed as mean±SE. […] Percent dilation was calculated as the percent change from the preconstricted diameter to the passive diameter in Ca^2+-free Krebs containing 10^−4 M papaverine. Percent constriction or basal tone was determined by calculating the percent reduction in the passive diameter. To compare dose-response relationships between treatment groups, a two-way ANOVA supported by a Bonferroni post hoc test was used. Statistical comparisons of maximal percent vasodilation and basal tone under different treatments were performed by paired Student's t test. […] Statistical significance was defined as a value of P<0.05.

BKCa [6] = target: BKCa (Mus musculus, UniProt Q08460); assay: Videomicroscopy: vasodilation of mouse carotid artery segments to BKCa opener; details: endothelium-denuded carotid artery segments
Chain of BKCa (Mus musculus, UniProt Q08460) (Q08460 whole entry): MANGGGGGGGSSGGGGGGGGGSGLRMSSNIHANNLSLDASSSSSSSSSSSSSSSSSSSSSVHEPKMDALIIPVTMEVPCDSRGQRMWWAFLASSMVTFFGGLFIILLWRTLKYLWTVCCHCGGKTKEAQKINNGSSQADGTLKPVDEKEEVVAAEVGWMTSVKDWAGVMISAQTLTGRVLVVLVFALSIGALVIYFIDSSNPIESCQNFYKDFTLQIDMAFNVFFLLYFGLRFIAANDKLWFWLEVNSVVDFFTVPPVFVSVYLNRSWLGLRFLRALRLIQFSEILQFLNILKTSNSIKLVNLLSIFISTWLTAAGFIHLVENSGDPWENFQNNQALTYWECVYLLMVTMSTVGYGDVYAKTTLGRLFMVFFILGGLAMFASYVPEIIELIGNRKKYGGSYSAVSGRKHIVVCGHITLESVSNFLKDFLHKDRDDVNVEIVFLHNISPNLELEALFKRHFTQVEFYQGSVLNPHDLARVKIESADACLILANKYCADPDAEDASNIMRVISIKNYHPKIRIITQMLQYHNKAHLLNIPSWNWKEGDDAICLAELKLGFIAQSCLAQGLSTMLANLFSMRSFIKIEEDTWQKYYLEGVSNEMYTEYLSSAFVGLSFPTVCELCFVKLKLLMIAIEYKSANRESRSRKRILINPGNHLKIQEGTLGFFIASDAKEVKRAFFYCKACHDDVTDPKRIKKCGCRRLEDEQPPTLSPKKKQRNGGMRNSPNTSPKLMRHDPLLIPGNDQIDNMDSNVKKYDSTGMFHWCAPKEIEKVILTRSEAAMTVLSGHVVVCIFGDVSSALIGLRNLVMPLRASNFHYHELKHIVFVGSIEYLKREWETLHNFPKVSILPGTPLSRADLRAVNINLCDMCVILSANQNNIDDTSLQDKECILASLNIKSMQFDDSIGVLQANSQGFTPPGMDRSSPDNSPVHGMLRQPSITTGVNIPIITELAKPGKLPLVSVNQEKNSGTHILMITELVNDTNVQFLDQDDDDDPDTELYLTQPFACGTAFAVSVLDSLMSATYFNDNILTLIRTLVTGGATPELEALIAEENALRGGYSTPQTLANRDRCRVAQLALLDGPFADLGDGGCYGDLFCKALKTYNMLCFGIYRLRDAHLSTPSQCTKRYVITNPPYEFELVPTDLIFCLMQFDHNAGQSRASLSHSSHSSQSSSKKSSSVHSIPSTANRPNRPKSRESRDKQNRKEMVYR
Chain of BKCa (Mus musculus, UniProt Q08460) (Q8CAE3 whole entry partner): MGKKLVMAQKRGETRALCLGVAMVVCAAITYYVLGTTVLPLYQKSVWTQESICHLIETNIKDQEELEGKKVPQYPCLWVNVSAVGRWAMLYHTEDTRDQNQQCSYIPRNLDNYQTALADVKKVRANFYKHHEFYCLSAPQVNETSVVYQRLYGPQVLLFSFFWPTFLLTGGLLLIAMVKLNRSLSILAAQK
Procedure: as §2, §3

IKCa mRNA = assay: Real-time RT-PCR of IKCa mRNA in HCSMCs; type: cell-based, human; details: PDGF 20 ng/ml, at 6 h, n=5
Excerpt: (sense) and [NT] (antisense); for [NT] (sense) and [NT] (antisense).

[7] = among the groups (WT, ApoE KO vehicle, ApoE KO TRAM-34)
[8] = long-term treatment, anesthetized mice

## COc1ccc(Cl)cc1C(=O)NCCc1ccc(S(=O)(=O)NC(=O)NC2CCCCC2)cc1 [Glibenclamide, reference compound]
[1]; with PDGF, data not shown, n=4
  effect on PDGF-induced HCSMC proliferation: had no effect

## Clc1ccccc1C(c1ccccc1)(c1ccccc1)n1cccn1 [TRAM-34, 1-[(2-chlorophenyl)diphenylmethyl]-1H-pyrazole]
[1]; PDGF + TRAM-34 at 10^-7 M
  cell number of HCSMCs: 1.1±0.1 fold of control
[1]; PDGF+TRAM-34 or TRAM-34 alone, HCSMCs
  cell viability: did not affect cell viability
[1]; in the absence of PDGF
  effect on HCSMC proliferation: had no effect
[2]; PDGF + TRAM-34, n=26
  DNA synthesis (BrdU incorporation): 2.2±0.2 fold of control
[2]; TRAM alone, no PDGF, n=6
  effect on DNA synthesis: had no effect
c-fos
  PDGF-induced up-regulation of c-fos protein: markedly reduced
[3]; PDGF + TRAM-34, 8-hour stimulation, n=4
  HCSMC migration: 2392 fold of control
ApoE knockout mice
  accumulation of macrophages in the plaques: decreased
  nitric oxide-mediated component of endothelium-dependent vasodilation: restored
  plasma level of MCP-1: reduced
  plasma level of TNF-alpha: reduced
[4]; 14-week treatment, unknown reasons, same in vehicle group
  deaths during treatment: One mouse
[4]; ApoE KO mice, TRAM-34 vs vehicle
  plasma cholesterol levels: no significant difference
[4]; [7]
  body weight: no significant differences
  heart weight: no significant differences
[4]; [8]
  blood pressure: unaltered
  heart rate: unaltered

## C=C[C@@]1(C)C=C2CC[C@@H]3[C@](C)(CCC[C@@]3(C)C(=O)O)[C@H]2CC1 [pimaric acid]
BKCa [5]; CAD subjects
  vasodilation: 31±3%
BKCa [5]; non-CAD subjects
  vasodilation: 56±6%
BKCa [6]; ApoE KO mice
  % max. dilation: 9±3%
BKCa [6]; WT mice, 10^-5 M
  % max. dilation: 55±10%

## platelet-derived growth factor-BB [PDGF]
[1]; PDGF alone (20 ng/mL)
  cell number of HCSMCs: 1.6±0.1 fold of control
[2]; PDGF alone, n=26
  DNA synthesis (BrdU incorporation): 2.8±0.3 fold of control
[3]; PDGF alone (20 ng/ml), 8-hour stimulation, n=10
  HCSMC migration: 32±4 fold of control
IKCa mRNA
  IKCa mRNA expression, max response: 4.2±1.0 fold
